Our source for the TGI values is PubChem BioAssay (NCI).

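Growth conditions: 96-well plates. Treatment: test compound, 48 hours, 5 concentrations. Analysis: linear interpolation between bracketing concentrations; unreached endpoints set to highest concentration. TGI: total growth inhibition.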

Some test systems named below: SF-539 CNS; MDA-MB-435; TK-10 renal; A549 NSCLC; CCRF-CEM leukemia; K-562 leukemia; RPMI-8226 leukemia; RXF 393 renal; M14 melanoma; OVCAR-4 ovarian; OVCAR-5 ovarian; SK-MEL-5 melanoma; NCI-H460 lung.
What all share (test): NCI-60 cell line screen, 48 h

In the case of `CC(C)(C)c1cc(C(CO)OCCOCCO)cc(C(C)(C)C)c1O` (stereo not given), the TGI in the assay with SF-539 CNS, with MDA-MB-435, in the assay with TK-10 renal, in the assay with A549 NSCLC, with CCRF-CEM leukemia and in the assay with K-562 leukemia was greater than 100 µM in each case. Besides, the TGI in the assay on RPMI-8226 leukemia, in the assay with RXF 393 renal, with M14 melanoma, in the assay with OVCAR-4 ovarian, with OVCAR-5 ovarian and in the assay on SK-MEL-5 melanoma was greater than 100 µM in each case.
For `Cc1cc(OCc2nnc3n2N=C(c2cc(F)c(Cl)cc2Cl)/C(=C/c2ccc(Cl)cc2)S3)ccc1Cl`, the TGI with SF-539 CNS is greater than 100 µM; with MDA-MB-435, greater than 100 µM; in the assay on TK-10 renal, greater than 100 µM; with NCI-H460 lung it was greater than 100 µM; with CCRF-CEM leukemia, greater than 100 µM; in the assay with K-562 leukemia, 56.2 µM. Further, the TGI in the assay on RPMI-8226 leukemia was 33.2 µM; in the assay with RXF 393 renal, 39.4 µM; with M14 melanoma, 65.5 µM; in the assay with OVCAR-4 ovarian, 59.8 µM; in the assay on OVCAR-5 ovarian, 95.5 µM; with SK-MEL-5 melanoma it was 36.5 µM.
Consider `Cc1c(O)c(C)c2c(C)cn(C(=O)C(C)(C)C)c2c1C`, for which the TGI was 30 µM with SF-539 CNS; 30.3 µM in the assay with MDA-MB-435; 36.4 µM in the assay with TK-10 renal; 64.7 µM with A549 NSCLC; 63.8 µM in the assay on NCI-H460 lung; 55.7 µM in the assay with CCRF-CEM leukemia. Also, the TGI with K-562 leukemia came out at 98.2 µM; with RPMI-8226 leukemia, 84.5 µM; in the assay on RXF 393 renal it was 41.6 µM; in the assay with M14 melanoma it was 30.5 µM; in the assay with OVCAR-4 ovarian, 27 µM; in the assay with OVCAR-5 ovarian, 83 µM. Also, the TGI with SK-MEL-5 melanoma was determined as 27.8 µM.
`Cc1ccc(NC(=S)NNC(=O)c2cc(-c3ccccc3)nc3ccccc23)cc1`: the TGI with SF-539 CNS is 30.1 µM; in the assay on MDA-MB-435, 10.9 µM; in the assay on TK-10 renal it was 29.1 µM; in the assay on A549 NSCLC, 26.2 µM; in the assay with NCI-H460 lung, 47.9 µM; in the assay with K-562 leukemia, greater than 100 µM. Further, the TGI was found to be 39.2 µM with RPMI-8226 leukemia; 26.6 µM with RXF 393 renal; 26.8 µM in the assay with M14 melanoma; 35.6 µM in the assay on OVCAR-4 ovarian; 31.3 µM in the assay on OVCAR-5 ovarian; 35.3 µM in the assay with SK-MEL-5 melanoma.
With `COC(=O)C1(OC(=O)Sc2ccccc2)CCN(C)CC1`, the TGI was 26.5 µM in the assay with SF-539 CNS; 36.3 µM with MDA-MB-435; greater than 75.6 µM with TK-10 renal; greater than 100 µM in the assay on A549 NSCLC; 58.1 µM with NCI-H460 lung; 19.7 µM in the assay on CCRF-CEM leukemia. Further, the TGI in the assay on K-562 leukemia is 61.1 µM; in the assay with RPMI-8226 leukemia, 35 µM; in the assay with RXF 393 renal, 34.9 µM; in the assay on M14 melanoma, greater than 58.6 µM; in the assay with OVCAR-4 ovarian, greater than 100 µM; with OVCAR-5 ovarian, greater than 69.6 µM. This compound registered a TGI in the assay on SK-MEL-5 melanoma greater than 70.4 µM.
With `CCN(CC)C(=S)SS(=O)(=O)c1ccc(F)cc1`, the TGI in the assay with SF-539 CNS was 52.4 µM; in the assay with MDA-MB-435, greater than 100 µM; in the assay on TK-10 renal, greater than 100 µM; in the assay with NCI-H460 lung, greater than 100 µM; in the assay with K-562 leukemia, greater than 100 µM; in the assay on RPMI-8226 leukemia, 55.5 µM. Also, the TGI in the assay with RXF 393 renal is 40.4 µM; in the assay with M14 melanoma, 60.5 µM; in the assay with OVCAR-4 ovarian, greater than 100 µM; in the assay with OVCAR-5 ovarian it was greater than 100 µM; in the assay on SK-MEL-5 melanoma, greater than 100 µM.
Regarding `Cc1ccc(-c2cc(-c3ccc(Cl)cc3)nc(/N=C3\C(=O)N(CN4CCOCC4)c4ccc(Cl)cc43)n2)cc1`, the TGI in the assay on SF-539 CNS is 59.5 µM; with MDA-MB-435, 65.9 µM; with TK-10 renal, 72.2 µM; in the assay on A549 NSCLC, greater than 100 µM; in the assay with NCI-H460 lung it was 81.2 µM; with CCRF-CEM leukemia, greater than 100 µM. Further, the TGI in the assay with K-562 leukemia is 90.9 µM; in the assay on RPMI-8226 leukemia it was greater than 100 µM; in the assay on RXF 393 renal it was 26.9 µM; with M14 melanoma it was greater than 100 µM; in the assay with OVCAR-4 ovarian, greater than 100 µM; in the assay with OVCAR-5 ovarian it was greater than 100 µM. In the assay with SK-MEL-5 melanoma, the TGI came to 38.4 µM.
With `Cc1cc(C)nc(NS(=O)(=O)c2ccc(NNC(=O)c3cccc4c(=O)c5ccccc5[nH]c34)cc2)n1`, the TGI in the assay with SF-539 CNS, in the assay on MDA-MB-435, in the assay on TK-10 renal, with A549 NSCLC, with NCI-H460 lung and in the assay on CCRF-CEM leukemia was greater than 100 µM in each case. For the same compound, the TGI in the assay with K-562 leukemia, in the assay with RPMI-8226 leukemia, in the assay on RXF 393 renal, in the assay with M14 melanoma, with OVCAR-4 ovarian and with OVCAR-5 ovarian was greater than 100 µM each time. This compound displayed a TGI in the assay on SK-MEL-5 melanoma greater than 100 µM.
As to `CC(C)=C1C(=O)C[C@]2(C)C[C@H]3/C(=C(/C)CCC12)CC[C@@]3(C)O` (stereo not given in full), the TGI in the assay with SF-539 CNS, in the assay on MDA-MB-435, with TK-10 renal, in the assay on A549 NSCLC, in the assay on CCRF-CEM leukemia and in the assay with K-562 leukemia was greater than 50 µM in each case. Besides, the TGI in the assay with RPMI-8226 leukemia, with RXF 393 renal, in the assay with M14 melanoma, with OVCAR-4 ovarian, with OVCAR-5 ovarian and in the assay on SK-MEL-5 melanoma was greater than 50 µM each time.
As to `CC(/C=N\NC(=S)N1CCCCC1)=N/NC(=S)N1CCCCC1`, the TGI was greater than 100 µM in the assay with SF-539 CNS; 17.5 µM in the assay with MDA-MB-435; 11.8 µM in the assay on TK-10 renal; 18.5 µM in the assay on A549 NSCLC; 9.76 µM with NCI-H460 lung; greater than 100 µM in the assay with K-562 leukemia. In addition, the TGI is greater than 100 µM in the assay with RPMI-8226 leukemia; 4.28 µM in the assay on RXF 393 renal; 5.51 µM with M14 melanoma; 15.8 µM with OVCAR-4 ovarian; 21.8 µM with OVCAR-5 ovarian; 3.86 µM in the assay on SK-MEL-5 melanoma.
Regarding `S=c1[nH]n2c(COc3cccc(OCc4nnc5sc(=S)[nH]n45)c3)nnc2s1`, the TGI with SF-539 CNS, with MDA-MB-435, in the assay on TK-10 renal, in the assay on A549 NSCLC, in the assay with NCI-H460 lung and with CCRF-CEM leukemia was greater than 100 µM throughout. Also, the TGI in the assay on K-562 leukemia, in the assay with RPMI-8226 leukemia, in the assay on RXF 393 renal, with M14 melanoma, with OVCAR-4 ovarian and in the assay with OVCAR-5 ovarian was greater than 100 µM throughout.
